From PMC12390684 (Viruses, 2025)
Where “and” joins values, the source holds several entries; their conditions need not be identical. Equal entries are not always repeated. Square brackets hold non-standard residues; d marks the D form. Peptide text beside a SMILES is read from it. dNMeL = CN[C@H](CC(C)C)C(=O)O; Hiv = CC(C)[C@H](O)C(=O)O

Biological target: IN-GCN2 interaction (6xHis-IN / GST-GCN2) (UniProt P04585+Q9P2K8)
Assay: biochemical
Assay type: binding, HIV-1 IN; human GCN2
Conditions: screen, single dose 100 µM, single replicate; residual AlphaLISA signal normalized to DMSO control

IN-GCN2 interaction (6xHis-IN / GST-GCN2), sequence (Q9P2K8 192-1024, other chains not shown): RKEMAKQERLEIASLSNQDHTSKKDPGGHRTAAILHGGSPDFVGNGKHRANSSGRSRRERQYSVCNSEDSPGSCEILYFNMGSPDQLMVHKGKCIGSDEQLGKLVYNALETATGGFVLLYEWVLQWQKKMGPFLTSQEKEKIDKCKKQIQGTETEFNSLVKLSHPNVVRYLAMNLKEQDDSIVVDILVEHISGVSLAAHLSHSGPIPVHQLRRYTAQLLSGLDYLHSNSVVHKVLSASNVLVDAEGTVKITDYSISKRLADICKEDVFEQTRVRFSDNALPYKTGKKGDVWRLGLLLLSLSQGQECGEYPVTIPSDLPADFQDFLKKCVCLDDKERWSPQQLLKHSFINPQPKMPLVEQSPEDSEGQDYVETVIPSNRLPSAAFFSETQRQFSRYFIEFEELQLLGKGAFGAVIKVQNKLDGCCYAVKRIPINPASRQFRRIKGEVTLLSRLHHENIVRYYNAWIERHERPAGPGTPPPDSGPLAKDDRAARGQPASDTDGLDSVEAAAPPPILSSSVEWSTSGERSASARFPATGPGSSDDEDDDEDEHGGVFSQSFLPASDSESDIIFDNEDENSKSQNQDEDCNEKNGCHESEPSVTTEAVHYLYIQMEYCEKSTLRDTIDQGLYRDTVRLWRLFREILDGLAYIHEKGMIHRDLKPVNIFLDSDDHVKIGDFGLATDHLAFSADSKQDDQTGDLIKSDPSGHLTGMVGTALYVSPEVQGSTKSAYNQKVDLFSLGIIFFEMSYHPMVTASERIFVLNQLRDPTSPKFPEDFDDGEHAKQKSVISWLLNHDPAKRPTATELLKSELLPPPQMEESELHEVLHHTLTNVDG

Structure (SMILES)	IN-GCN2 interaction (%)
C=C1C(=O)O[C@H]2[C@H]1[C@H](OC(=O)/C(C)=C\C)C[C@]1(CO1)[C@@H]1[C@H](OC(C)=O)C=C(C)[C@]21O [NSC104943]	118.84%
CCCCC[C@@H](O)[C@H]1C(=O)O[C@H](C)[C@@H](O)/C=C/C=C/C=C/C=C/C=C(\C)[C@@H](O)[C@H](O)[C@H](O)C[C@H](O)C[C@H](O)C[C@H](O)C[C@H](O)C[C@@H]1O [NSC105388]	86.99%
NC(=S)c1cn(C2OC(CO)C(O)C2O)c2ncnc(N)c12 (stereo not shown) [NSC105827]	100.77%
O=c1[nH]cnc2c([C@@H]3O[C@H](CO)[C@@H](O)[C@H]3O)[nH]nc12 [NSC106486]	77.11%
COc1ccc(-c2oc3cc(O)c(OC)c(O)c3c(=O)c2OC)cc1O [NSC106969]	98.61%
COC(=O)c1ccc(O)c2nc3c(C=O)c(O)cc(O)c3nc12 [NSC106995]	28.53%
CC(CCC/C=C/CCCN(C)C(=N)N)CC(C)C1OC(=O)C(C)C(O)/C=C/C(C)C(O)C(C)C(O)C(C)C(O)CCCC(O)CC2(O)OC(CC(OC(=O)CC(=O)O)CC(O)CC(O)C(C)C(O)/C=C/C=C/C1C)CC(O)C2O (stereo not shown) [NSC107041]	57.24%
Cc1ccc(S(=O)(=O)NNC(=O)c2cc(C)c(C)cc2N)cc1 [NSC107453]	88.25%
CCC1CN(C)C2Cc3c([nH]c4ccccc34)C(=O)CC1C2C(=O)OC (stereo not shown) [NSC108088]	78.52%
N=C1C=C(N)C(=O)c2[nH]c(=O)ccc21 [NSC111041]	43.78%
C[C@@H]1C[C@@H]2CCCC(O)=C2C(=O)O1 [NSC112906]	126.27%
O=C1NC(O)CCN1[C@@H]1O[C@H](CO)[C@@H](O)[C@H]1O (stereo partly shown) [NSC112907]	123.97%
CC1C(=O)OC2CCN3CC4OC4(COC(=O)C(C)(O)C1(C)O)C23 (stereo not shown) [NSC113087]	97.53%
CC(=O)O[C@@H]1C[C@H]2C(C)(C)C(=O)C=C[C@]2(C)[C@H]2CC[C@@]3(C)[C@H](c4ccoc4)OC(=O)[C@H]4O[C@]43[C@@]21C [NSC113497]	59.74%
COc1cc(/C=N\O)nc(-c2ccccn2)c1 [NSC114341]	45.21%
CC[C@H](C)c1occ2c(O)c(C(=O)O)c(=O)cc-2c1C [NSC114344]	113.54%
C/C=C/c1cc2c(c(=O)o1)C(=O)[C@@H](O)[C@H](C)O2 [NSC118343]	125.37%
Br.CN1CCc2cc3c(cc2C1)OCO3 [NSC121859]	114.20%
O=C(O)CC1OCC=C2CN3CCC45c6ccccc6NC4C1C2CC35 (stereo not shown) [NSC121860]	104.59%
COc1cc2c(cc1OC)C13CCN4CC5=CCOC(CC(=O)O)C(C5CC41)C3N2 (stereo not shown) [NSC121865]	122.60%
CC(C)[C@@H]1NC(=O)[C@H](C)OC(=O)[C@@H](C(C)C)NC(=O)[C@@H](C(C)C)OC(=O)[C@H](C(C)C)NC(=O)[C@H](C)OC(=O)[C@@H](C(C)C)NC(=O)[C@@H](C(C)C)OC(=O)[C@H](C(C)C)NC(=O)[C@H](C)OC(=O)[C@@H](C(C)C)NC(=O)[C@@H](C(C)C)OC1=O [NSC122023]	63.87%
CC(C)C[C@@H]1NC(=O)[C@H](C(C)C)NC(=O)[C@H](C(C)C)OC(=O)[C@@H](CC(C)C)N(C)C(=O)[C@@H](C(C)C)NC(=O)[C@H](C(C)C)OC1=O [NSC122224] (cyclo([Hiv]VL[Hiv][dV][dNMeL]))	110.56%
COC1=C2C[C@@H](C)C[C@H](OC)[C@H](O)[C@@H](C)/C=C(\C)[C@H](OC(N)=O)[C@@H](OC)/C=C\C=C(/C)C(=O)NC(=CC1=O)C2=O [NSC122750]	116.21%

Structure (SMILES)	IN-GCN2 interaction (%)
COc1cc([C@@H]2c3cc4c(cc3[C@@H](O[C@@H]3O[C@@H]5CO[C@@H](c6cccs6)O[C@H]5[C@H](O)[C@H]3O)[C@H]3COC(=O)[C@H]23)OCO4)cc(OC)c1O [NSC122819]	96.83%
COc1ccc(-c2cc(=O)c3ccc(O)cc3o2)cc1OC [NSC123383]	118.02%
COc1c(O)ccc2c1CN1CCc3cc4c(cc3C1C2)OCO4 (stereo not shown) [NSC123389]	87.65%
CO[C@H]1[C@@H](O)[C@@H](C)O[C@@H](OC2CCC3(C)C(CCC4C3C(O)CC3(C)C(C5=CC(=O)OC5)CCC43O)C2)[C@@H]1O (stereo partly shown) [NSC123977]	127.41%
CCC(C)(O)c1cnc(CC(C)C)c(=O)n1O (stereo not shown) [NSC127445]	137.47%
O=C(O)/C=C/CC[C@@H]1SC[C@@H]2NC(=O)N[C@@H]21 [NSC127473]	109.13%
COC1=CC23CCCN2CCc2cc4c(cc2C3C1O)OCO4 (stereo not shown) [NSC128487]	118.57%
C=C1C(=O)OC2CCN3CC=C(COC(=O)C(C)(O)C4(CO4)C1C)C23 (stereo not shown) [NSC129230]	110.22%
CC(C)(O)[C@@H]1[C@H]2OC(=O)[C@@H]1[C@]1(O)C[C@H]3O[C@]34C(=O)O[C@H]2[C@]14C [NSC129536]	112.62%
CC[C@](C)(O)C(=O)O[C@H]1C(=O)O[C@@H]2C[C@H]3C(C)=CC(=O)[C@@H](O)[C@]3(C)[C@H]3[C@@]4(O)OC[C@]32[C@@H]1[C@@H](C)[C@H]4O [NSC132791]	89.72%
CO[C@H]1/C=C/O[C@@]2(C)Oc3c(C)c(O)c4c(O)c(cc(O)c4c3C2=O)NC(=O)/C(C)=C\C=C\[C@H](C)[C@H](O)[C@@H](C)[C@@H](O)[C@@H](C)[C@H](OC(C)=O)[C@@H]1C [NSC133100]	111.79%
CCCCCCCCCCCCCCCC(=O)OC[C@H]1O[C@@H](n2ccc(N)nc2=O)[C@@H](O)[C@@H]1O [NSC135962]	92.71%
NCCOC[C@H](N)C(=O)O [NSC136035]	90.45%
COC1CCC(OC2CC(C3(C)CCC4(CC(O)C(C)C(C(C)/C=C(\C)C(=O)C(C)CC(C)C(=O)O)O4)O3)OC3(OC(C4OC(O)(CO)C(C)CC4C)CC3C)C2C)OC1C (stereo not shown) [NSC138320]	102.91% and 57.85%
COC1C(=O)CCC2(CO2)C1(O)C1(C)OC1CC=C(C)C (stereo not shown) [NSC141538]	103.23%
C/C(=C\COc1ccc2ccc(=O)oc2c1)C1=CC(=O)C(C)(C)O1 [NSC142227]	94.46%
Cl.NC(=O)c1cn(C2OC(CO)C(O)C2O)c2ncnc(N)c12 (stereo not shown) [NSC143648]	113.09%
CC(=O)C(=O)N[C@@H]1/C=C(C)/C=C/[C@@H](O)C/C=C(C)/C=C/[C@@H](O)C[C@H]2OC(=O)[C@]1(C)C(=O)[C@@H]2C [NSC145118]	98.66%
C=C1C(=O)OCC2C(C(=O)O)=CC3C(C)C(C)=CC123 (stereo not shown) [NSC145150]	111.51%
CO[C@@H]1/C=C\O[C@]2(C)Oc3c(C)c(O)c4c(O)c(c(CN(C)C)c(O)c4c3C2=O)NC(=O)/C(C)=C\C=C[C@@H](C)[C@@H](O)[C@H](C)[C@@H](O)[C@H](C)[C@H](OC(C)=O)[C@@H]1C [NSC145612]	71.81%
COc1cc2c(cc1OC)C(OC)N(C)c1c-2ccc2cc3c(cc12)OCO3 (stereo not shown) [NSC146396]	90.77%
COc1ccc(C[C@@H]2NC[C@@H](O)[C@@H]2OC(C)=O)cc1.Cl [NSC147340]	88.95%
CC(=O)O[C@H]1C[C@]2(O)[C@@H]3CC[C@@H]4C[C@@H](O)CC[C@]4(C)[C@H]3CC[C@]2(C)[C@H]1C1=CC(=O)OC1 [NSC148790]	114.66%
